{
  "source": "paper PMC5335257",
  "about": "“Promoting in vivo remyelination with small molecules: a neuroreparative pharmacological treatment for Multiple Sclerosis” (Scientific Reports, 2017)",
  "key": {"[1]": {"test_system": "spinal cord injury models", "design": "method as in PMID 21297958, PMID 23077723", "conditions": "spinal cord injury models (as well as EAE); cited from earlier work"}, "[2]": {"test": "Pharmacokinetics in plasma and brain after single i.p. or oral dose", "format": "in vivo, male BALB/c mice", "conditions": "for AUCinf / AUClast / Cmax / MRT inf / MRT last / Tmax / AUC(0-inf) / AUC(0-t): male BALB/c mice; for Cmax / MRT inf / MRT last / Tmax / AUC(0-inf) / AUC(0-t): mouse"}, "[3]": {"test_system": "corpus callosum of LPC-injected mice", "test": "In vivo remyelination, LPC demyelination model", "design": "species or system C57/BL6 male mice", "conditions": "10 mg/kg i.p. from 9 dpi", "procedure": "Anaesthetized 8 week old C57/BL6 male mice were injected with 2 μl of 1% LPC through a hole drilled in the skull at stereotactic coordinates 1.2 mm posterior, 0.5 mm lateral, 1.4 mm deep to the bregma over 4 minutes using a 30-gauge needle attached to a Hamilton syringe, driven by a KD Scientific Nano pump, for 4 minutes to reduce backflow as previously described. At 9 days post injection (dpi), the first intraperitoneal dose of PDE7-GSK3 inhibitors (VP1.15 or VP3.15; 10 mg/kg of animal) was injected using the same solution detailed above for the cuprizone model. Each inhibitor was injected into a group of 10 mice and another group of 10 mice was injected with the vehicle. Two days after, a second dose was injected (11 dpi) and 5 mice of each group were perfused at 14 dpi with 4% PFA and 2% glutaraldehyde (GTA) in phosphate buffer. The remaining 5 animals of each group received a third injection of inhibitors (15 dpi) and were perfused at 21 dpi. A control group of 3 non-lesioned and non-treated mice was used as control. Fixed brains were post-fixed in 1% GTA for 7 days and then coronally cut into 1 mm slices. The slices containing the injected areas were selected and the area of interest was cut and processed for electron microscopy into a resin (Araldite/TAAB 812 Resin Kit, TAAB) following manufacturer instructions.\nIn order to detect the injured areas for investigation, sagittal semi-thin sections (1 μm) were cut using an ultramicrotome (Leica) and stained with toluidine blue. Ultra-thin sections (60 nm thick) were cut and stained in uranyl acetate and lead citrate and the ultrastructure was analysed taking images with a GatanOrius CCD camera coupled to a transmission electronic microscope (Philips CM120). The percentage of myelinated fibres and the thickness of myelin sheaths were examined. The mean percentage of myelinated fibres was measured from 10 fields per animal. Grids were overlaid onto the images and all axons intersecting with the grid lines were counted as myelinated or not[83][84]. The thickness of myelin around myelinated fibres was expressed as a g-ratio (axon perimeter divided by myelinated fibre perimeter) using ImageJ by tracing around a minimum of 100 individual fibres per mouse, using a pen and electronic pad (Bamboo pad, Wacom). To select the fibres randomly, a grid composed by 8 μm[2] squares was overlaid onto the images and fibres in alternate squares were measured. Data were expressed as the mean ± SEM."}, "[4]": {"test_system": "OPCs from P0 mice", "test": "Survival assay (Casp3+-A2B5+ cells)", "format": "cell-based, mouse", "conditions": "murine P0 OPCs, 1 μM, 2 DIV", "procedure": "We isolated OPCs, as previously described. Briefly, a stock papain solution was prepared containing ([…]; Worthington Biochemical), L-cysteine (0.2 mg/ml; Sigma), and EDTA (0.2 mg/ml; Sigma) in Hank’s Balanced Salt Solution (HBSS; Invitrogen) without Ca^2+ and Mg[2]. Then, the cerebral cortices of P0 CD1 mice were dissected out and placed for 5 minutes at 37 °C in a medium containing the stock papain solution in HBSS with Ca^2+ and Mg^2+ (1:10; Invitrogen) in order to easily remove the meninges. Once meninges and choroid plexus were removed, the tissue was enzymatically dissociated for 5 minutes at 37 °C again by using the papain solution (1:10 in HBSS without Ca^2+ and Mg^2+) and the digested tissue was then filtered through a 100 μm nylon mesh strainer (BD Biosciences) and seeded on poly-L-ornithine-coated (Sigma) 75 cm^2 flasks in DMEM medium (Invitrogen) containing 10% foetal bovine serum (FBS; BioWhittaker) and 100 U/mL penicillin, 0.1 mg/mL streptomycin and 0.25 μg/ml Amphotericin B antibiotic antimycotic solution (Sigma). Cultures were maintained at 37 °C and 5% CO2, and the medium was changed every 3 days. […] The resulting enriched oligodendrocyte progenitor cell suspension was counted and seeded. […]"}, "[5]": {"conditions": "i.p. 10 mg.kg^−1 single dose, brain"}, "[6]": {"conditions": "ip, i.p. 10 mg.kg^−1 single dose, brain"}, "[7]": {"conditions": "ip, i.p. 10 mg.kg^−1 single dose, plasma"}, "[8]": {"conditions": "po, p.o. 50 mg.kg^−1 single dose, brain"}, "[9]": {"conditions": "po, p.o. 50 mg.kg^−1 single dose, plasma"}, "[10]": {"conditions": "p.o. 50 mg.kg^−1 single dose, brain"}},
  "data": [
    {"smiles": "c1ccc(-c2n/c(=N/CCN3CCOCC3)sn2-c2ccccc2)cc1", "note": "[VP3.15]", "values": [
      {"measurement": "immunomodulatory effect", "setting": "[1]", "result": "immunomodulatory effect"},
      {"measurement": "AUCinf", "setting": "[2]; [5]", "result": 1506.00, "unit": "ng·h/g"},
      {"measurement": "AUClast", "setting": "[2]; [5]", "result": 1489.25, "unit": "ng·h/g"},
      {"measurement": "oral bioavailability and brain penetration", "setting": "[2]; mice, after oral and i.p. administration", "result": "shows oral bioavailability and brain penetration"},
      {"measurement": "Cmax", "setting": "[2]; [6]", "result": 1980, "unit": "ng/g"},
      {"measurement": "MRT inf", "setting": "[2]; [6]", "result": 1.25, "unit": "h"},
      {"measurement": "MRT last", "setting": "[2]; [6]", "result": 1.21, "unit": "h"},
      {"measurement": "Tmax", "setting": "[2]; [6]", "result": 0.08, "unit": "h"},
      {"measurement": "AUC(0-inf)", "setting": "[2]; [7]", "result": 2000, "unit": "ng·h/mL"},
      {"measurement": "AUC(0-t)", "setting": "[2]; [7]", "result": 1960, "unit": "ng·h/mL"},
      {"measurement": "Cmax", "setting": "[2]; [7]", "result": 1990, "unit": "ng/mL"},
      {"measurement": "MRT inf", "setting": "[2]; [7]", "result": 0.91, "unit": "h"},
      {"measurement": "MRT last", "setting": "[2]; [7]", "result": 0.82, "unit": "h"},
      {"measurement": "Tmax", "setting": "[2]; [7]", "result": 0.25, "unit": "h"},
      {"measurement": "Cmax", "setting": "[2]; [8]", "result": 497, "unit": "ng/g"},
      {"measurement": "MRT inf", "setting": "[2]; [8]", "result": 4.01, "unit": "h"},
      {"measurement": "MRT last", "setting": "[2]; [8]", "result": 2.07, "unit": "h"},
      {"measurement": "Tmax", "setting": "[2]; [8]", "result": 0.5, "unit": "h"},
      {"measurement": "AUC(0-inf)", "setting": "[2]; [9]", "result": 2380, "unit": "ng·h/mL"},
      {"measurement": "AUC(0-t)", "setting": "[2]; [9]", "result": 2290, "unit": "ng·h/mL"},
      {"measurement": "Cmax", "setting": "[2]; [9]", "result": 881, "unit": "ng/mL"},
      {"measurement": "MRT inf", "setting": "[2]; [9]", "result": 1.86, "unit": "h"},
      {"measurement": "MRT last", "setting": "[2]; [9]", "result": 1.64, "unit": "h"},
      {"measurement": "Tmax", "setting": "[2]; [9]", "result": 1, "unit": "h"},
      {"measurement": "AUCinf", "setting": "[2]; [10]", "result": 1794.28, "unit": "ng·h/g"},
      {"measurement": "AUClast", "setting": "[2]; [10]", "result": 1375.08, "unit": "ng·h/g"},
      {"measurement": "thickness of myelin sheaths (G-ratio) vs untreated demyelinated control", "setting": "[3]", "result": "increased the thickness"},
      {"measurement": "percentage of myelinated callosal fibers vs vehicle", "setting": "[3]; analysed at 14 or 21 dpi", "result": "did not show any effect"},
      {"measurement": "OPC survival (Casp3+-A2B5+ apoptotic cells)", "setting": "[4]", "result": "without affecting"}
    ]}
  ]
}
